{"source": "paper PMC5023640", "about": "“Purification and characterization of an extracellular β-xylosidase from Pseudozyma hubeiensis NCIM 3574 (PhXyl), an unexplored yeast” (AMB Express, 2016)", "molecular_target": "T1, PhXyl (extracellular β-xylosidase) (Pseudozyma hubeiensis, UniProt R9NZV8)", "T1 construct": "gene PHSY_001848; native extracellular enzyme purified from culture supernatant", "T1 sequence (R9NZV8 24-873)": "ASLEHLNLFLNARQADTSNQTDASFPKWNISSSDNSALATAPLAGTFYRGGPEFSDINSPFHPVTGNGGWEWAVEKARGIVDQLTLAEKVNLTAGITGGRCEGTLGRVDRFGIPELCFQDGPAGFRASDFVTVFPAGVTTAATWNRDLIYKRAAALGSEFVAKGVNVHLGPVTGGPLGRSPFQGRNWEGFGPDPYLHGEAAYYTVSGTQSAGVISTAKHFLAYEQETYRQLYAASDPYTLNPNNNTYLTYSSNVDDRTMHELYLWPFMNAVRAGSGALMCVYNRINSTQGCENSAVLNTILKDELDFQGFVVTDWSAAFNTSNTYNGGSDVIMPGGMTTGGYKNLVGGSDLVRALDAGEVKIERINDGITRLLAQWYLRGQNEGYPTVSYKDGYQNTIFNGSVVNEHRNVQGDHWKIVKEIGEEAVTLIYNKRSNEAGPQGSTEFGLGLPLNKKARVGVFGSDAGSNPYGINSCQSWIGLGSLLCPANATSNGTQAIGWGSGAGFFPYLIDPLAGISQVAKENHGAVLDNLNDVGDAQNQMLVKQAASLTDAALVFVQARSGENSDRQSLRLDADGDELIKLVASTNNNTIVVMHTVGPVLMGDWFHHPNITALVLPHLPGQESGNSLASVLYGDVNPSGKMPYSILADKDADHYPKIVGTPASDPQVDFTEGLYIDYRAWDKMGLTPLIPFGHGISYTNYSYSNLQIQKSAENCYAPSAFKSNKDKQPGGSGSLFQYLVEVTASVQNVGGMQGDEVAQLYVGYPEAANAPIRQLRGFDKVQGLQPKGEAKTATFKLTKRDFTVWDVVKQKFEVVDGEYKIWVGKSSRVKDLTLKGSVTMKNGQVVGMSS", "test": "inhibition of pNPX hydrolysis", "assay_type": "biochemical", "settings": "read-out: % activity at 75 mM"}
{"compound": "OC1OC[C@@H](O)[C@H](O)[C@H]1O", "note": "(stereo partly shown) [xylose]", "values": [{"measurement": "activity at 75000 µM", "value": 50, "unit": "%"}]}
